Data from patent US20030061759A1, “Method for expelling harmful insects by volatilization of a chemical” (FUMAKILLA LIMITED, priority 2000, published 2003).
Read-outs that look alike come from different tables or passages of the source.

Columns and labels:
[1] = system: female adult common house mosquitoes (Culex pipiens pallens); experiment: Example 1: spontaneous volatilization efficaciousness test in 33 m^3 room (knockdown, KT50); assay type: in vivo; settings: for potency and retention of potency compared with transfluthrin: comparison in words
Description: Using sample chemicals A, B and C screened out by the preliminary tests, the efficaciousness of each of them when allowed to volatilize spontaneously was compared with that of transfluthrin when allowed to volatilize spontaneously.
Sample Preparations (Chemicals and Their Carriers According to the Present Invention):
(§1) A non-woven polypropylene fabric (made by Idemitsu Petroleum Chemicals Co., Ltd., product name RW2100, density 100 grams/m^2) of 50 cm×40 cm was coated with a hexane solution of 100 milliliter containing 1% (W/V) sample chemicals A, B, C and left to dry for 24 hours (effective amount of chemical: 1000 milligrams).
Comparative Preparation (Chemical and its Carrier):
as §1, with “of transfluthrin” for “sample chemicals A, B, C”
Testing Method: Efficaciousness Tests in an 8 Straw Mat room with a volume of 33 m^3
In the center of the test room with a volume of 33 m^3 (3.65 m×3.65 m×2.5 m high), each chemical carrier as prepared as above was placed as hung on a hook suspended in the center of the room to let the corresponding chemical volatilize spontaneously for a period of 3 hours. Thereafter, a triangular net casing (20 cm×20 cm×16.4 cm high) of 16 mesh nylon net containing 10 (ten) female adult common house mosquitoes (Culex pipiens pallens) was placed as hung in an area at each of the four corners (spaced from the wall surfaces at a distance of 90 cm) at a height of 150 cm from the room floor and was exposed to the chemical atmosphere.
A test was also conducted likewise for the comparative carrier.
After the tests ended, the samples chemicals were let to volatilize spontaneously in the room having a constant temperature of 30° C. The same test was repeated at given intervals and efficaciousness was then examined each time.

[2] = system: female adult stegomyia mosquitoes (Aedes albopictus); experiment: Comparative debugging efficaciousness tests: bloodsucking prevention on rats, liquid type electric mosquito repellent utensil; assay type: in vivo; settings: for efficacy of preventing mosquitoes from bloodsucking rats compared with transfluthrin: comparison in words; for Potency Ratio (Etoc 100), of IC50 Value / Potency Ratio (Etoc 100), of IC90 Value: relative to d,d-T80-prallethrin (Etoc) = 100
Protocol: First, debugging efficaciousness tests were performed. For the criterion of judgment to compare degrees of efficaciousness, the effect of bloodsucking by mosquitoes of rats was adopted. Based on this, the following efficaciousness tests were carried out.
Comparative Debugging Efficaciousness Tests
Sample chemicals that were used were as follows: d,d-T80-prallethrin, transfluthrin, d1,d-T80-allethrin, d-T80-furamethrin, terallethrin and empenthrin; and pyrethroid technical products (sample chemicals) A, B, C, D, E, F, G and H.
Sample insects that were used were as follows: female adult stegomyia mosquitoes (Aedes albopictus) of Fumakilla (spelled phonetically) series 6th to 9th after emergence.
Sample chemical volatilizing form: A liquid type electric mosquito repellent utensil, a liquid agent (referred to below as “sample liquid”), obtained by diluting each of the sample chemicals with a solvent in a varying concentration, was allowed to volatilize.
Method used for tests: A test was conducted in two 8 straw mat (13.2 m^2) rooms, one as a treatment zone and the other as a non-treatment zone, both in a no-wind state and at a constant room temperature of 32° C.
In the treatment zone, three cages each with a rat confined therein were placed equidistantly spaced apart (about 20 cm) in the center of the test room. The mosquito repellent utensil placed on the floor surface of the center of the test room was preliminarily electrically energized for operation, and to thermally volatilize each of the sample liquids and fumigate the room therewith for a period of 30 minutes, and then about 100 (one hundred) of sample mosquitoes were released into the test room. After two hours following the release of the mosquitoes, all these sample mosquitoes were knocked-down by using a mosquito repellent mat, and the number of the mosquitoes which had bloodsucking was counted to find the proportion of bloodsucking.
In the non-treatment zone, also, after the 2 hours of bloodsucking, the proportion of bloodsucking was found.
A rate of bloodsucking prevention was derived from the proportions of bloodsucking in the treatment and non-treatment rooms as expressed by the following equation:
Rate of bloodsucking prevention =[(Total bloodsucking proportion in the non-treatment zone−Total bloodsucking proportion in the treatment zone)÷Total bloodsucking proportion in the non-treatment zone]×100
Also, on the basis of these amounts of volatilization and rates of bloodsucking prevention, an amount of volatilization at a 50% rate of bloodsucking prevention (IC50 value) and an amount of volatilization at a 90% rate of bloodsucking prevention (IC90 value) are found and shown in Table 1 below.

[3] = Comparative vapor pressure tests by gas chromatography; assay type: physicochemical
Protocol: 2. Comparative Vapor Pressure Tests
Next, by using gas chromatography, the various chemicals including sample chemicals A, B and C screened out by the foregoing comparative debugging efficaciousness tests were compared with d,d-T80-prallethrin (Etoc) as regards to their vapor pressures.
The gas chromatography test included as its temperature conditions an initial temperature of 60° C., and a temperature rise of 5° C. per minute up to a maximum temperature of 250° C., which was held for a period of 5 minutes, whereupon the process ended.
The filler used was made up of methyl silicon polymer, which is non-polar.
It should also be noted that as an internal standard substance use was made of sebacic acid-n-butyl and which was added to confirm that there was no deviation in retention time from one test to another.
Retention times for the various chemicals are listed in Table 2 in the order of shorter to longer.

[4] = 13.2 m^2 room, 32° C., 30 min pre-fumigation, 2 hours after release, rats
[5] = 60° C. initial, 5° C. per minute up to 250° C., non-polar methyl silicon polymer filler

Structure (SMILES): C#CC(OC(=O)C1C(C=C(Cl)Cl)C1(C)C)C(F)=CCC (centres unmarked) [Sample Chemical B, 1-ethnyl-2-fluoro-2-pentenyl 3-(2,2-dichlorovinyl)-2,2-dimethylcyclopropanecarboxylate]
- potency and retention of potency compared with transfluthrin [1]: higher in potency and also longer in retention time than transfluthrin
- KT50 ([1]; elapsed time 0 hr): 8.64 min
- KT50 ([1]; elapsed time 168 hr): 7.53 min
- KT50 ([1]; elapsed time 336 hr): 7.77 min
- KT50 ([1]; elapsed time 504 hr): 7.48 min
- KT50 ([1]; elapsed time 672 hr): 6.45 min
- KT50 ([1]; elapsed time 864 hr): 7.90 min
- KT50 ([1]; elapsed time 1056 hr): 8.00 min
- KT50 ([1]; elapsed time 1200 hr): 8.00 min
- KT50 ([1]; elapsed time 1344 hr): 8.40 min
- KT50 ([1]; elapsed time 1536 hr): 8.60 min
- KT50 ([1]; elapsed time 1680 hr): 9.60 min
- KT50 ([1]; elapsed time 1848 hr): 10.40 min
- KT50 ([1]; elapsed time 2016 hr): 9.87 min
- KT50 ([1]; elapsed time 2208 hr): 11.70 min
- KT50 ([1]; elapsed time 2352 hr): 10.80 min
- KT50 ([1]; elapsed time 2520 hr): 12.00 min
- KT50 ([1]; elapsed time 2688 hr): 12.70 min
- KT50 ([1]; elapsed time 2856 hr): 13.50 min
- KT50 ([1]; elapsed time 3024 hr): 14.90 min
- KT50 ([1]; elapsed time 3192 hr): 18.60 min
- KT50 ([1]; elapsed time 3360 hr): 20.70 min
- KT50 ([1]; elapsed time 3528 hr): 22.90 min
- KT50 ([1]; elapsed time 3696 hr): 26.80 min
- KT50 ([1]; elapsed time 3864 hr): 28.00 min
- KT50 ([1]; elapsed time 4032 hr): 25.60 min
- KT50 ([1]; elapsed time 4200 hr): 32.70 min
- IC50 Value (amount of volatilization at a 50% rate of bloodsucking prevention) [2, 4]: 0.0047 mg/h
- IC90 Value (amount of volatilization at a 90% rate of bloodsucking prevention) [2, 4]: 0.0083 mg/h
- efficacy of preventing mosquitoes from bloodsucking rats compared with transfluthrin [2]: more efficacious than transfluthrin
- Potency Ratio (Etoc 100), of IC50 Value [2]: 172.3
- Potency Ratio (Etoc 100), of IC90 Value [2]: 469.9
- Retention Time (gas chromatography, as comparison of vapor pressure) [3]: 26.4 min
- vapor pressure compared with transfluthrin and d,d-T80-prallethrin [3]: lower than transfluthrin, but higher than d,d-T80-prallethrin

Structure (SMILES): Cc1c(F)c(F)c(COC(=O)C2C(C=C(F)Cl)C2(C)C)c(F)c1F (centres unmarked) [Sample Chemical C, 2,3,5,6-tetrafluoro-4-methylbenzyl 3-(2-chloro-2-fluorovinyl)-2,2-dimethylcyclopropanecarboxylate]
- potency and retention of potency compared with transfluthrin [1]: higher in potency and also longer in retention time than transfluthrin
- KT50 ([1]; elapsed time 0 hr): 5.53 min
- KT50 ([1]; elapsed time 168 hr): 7.53 min
- KT50 ([1]; elapsed time 336 hr): 7.55 min
- KT50 ([1]; elapsed time 504 hr): 6.95 min
- KT50 ([1]; elapsed time 672 hr): 7.98 min
- KT50 ([1]; elapsed time 864 hr): 12.60 min
- KT50 ([1]; elapsed time 1056 hr): 10.70 min
- KT50 ([1]; elapsed time 1200 hr): 11.50 min
- KT50 ([1]; elapsed time 1344 hr): 12.60 min
- KT50 ([1]; elapsed time 1536 hr): 15.90 min
- KT50 ([1]; elapsed time 1680 hr): 20.70 min
- KT50 ([1]; elapsed time 1848 hr): 25.90 min
- KT50 ([1]; elapsed time 2016 hr): 27.80 min
- KT50 ([1]; elapsed time 2208 hr): 30.60 min
- efficacy of preventing mosquitoes from bloodsucking rats compared with transfluthrin [2]: more efficacious than transfluthrin
- Potency Ratio (Etoc 100), of IC50 Value [2]: 130.6
- Potency Ratio (Etoc 100), of IC90 Value [2]: 348.2
- Retention Time (gas chromatography, as comparison of vapor pressure) [3, 5]: 24.5 min
- vapor pressure compared with transfluthrin and d,d-T80-prallethrin ([3]; from GC retention times): lower than transfluthrin, but higher than d,d-T80-prallethrin

Structure (SMILES): CC1(C)[C@H](C=C(Cl)Cl)[C@H]1C(=O)OCc1c(F)c(F)cc(F)c1F [Transfluthrin, reference compound]
- KT50 ([1]; elapsed time 0 hr): 11.10 min
- KT50 ([1]; elapsed time 168 hr): 8.73 min
- KT50 ([1]; elapsed time 336 hr): 9.17 min
- KT50 ([1]; elapsed time 504 hr): 13.40 min
- KT50 ([1]; elapsed time 672 hr): 12.10 min
- KT50 ([1]; elapsed time 864 hr): 17.20 min
- KT50 ([1]; elapsed time 1056 hr): 15.60 min
- KT50 ([1]; elapsed time 1200 hr): 20.40 min
- KT50 ([1]; elapsed time 1344 hr): 18.80 min
- KT50 ([1]; elapsed time 1536 hr): 28.10 min
- KT50 ([1]; elapsed time 1680 hr): 30.40 min
- Potency Ratio (Etoc 100), of IC50 Value [2]: 19.0
- Potency Ratio (Etoc 100), of IC90 Value [2]: 29.2
- Retention Time (gas chromatography, as comparison of vapor pressure) [3, 5]: 23.6 min
